Results as given in US20030068615A1, “Polypeptides that bind HIV gp120 and related nucleic acids, antibodies, compositions, and methods of use” (priority 1999, published 2003).
Where “and” joins values, the source holds several entries; their conditions need not be identical. Equal entries are not always repeated. Where two headings read alike, the source gives them in different places.

Biological target: HIV-1LAI envelope gp120 (Human immunodeficiency virus type 1 group M subtype B, UniProt P03377)
Type: binding
Conditions: for Counts per 20′ Average-background: CCR5 18-mer scan; for Relative % of Control: CCR5 (1-18) alanine variants, mean of two syntheses and binding experiments ± average deviation, wild-type = 100%
[1] = CXCR4 18-mer scan, background subtracted, empty control 0
[2] = CXCR4 18-mer scan, empty control 412
[3] = Panel B, 15-mers and 18-mers of CD4, empty control 575
[4] = Panel F, sequential alanine replacements of CD4 polypeptides, duplicate series, empty control 569
[5] = Panel D, 9-mers and 12-mers of CD4, empty control […]
[6] = STRL33 18-mer scan, background subtracted, first of two count columns
[7] = STRL33 18-mer scan, background subtracted, second of two count columns
[8] = Panel A, 21-mers of CD4, empty control 515 and 617
[9] = radiolabeled HIV-1LAI gp120, background subtracted
[10] = Panel E, 9-mers and 12-mers of CD4, empty control 571
[11] = Panel C, 15-mers and 18-mers of CD4, empty control 556

## GNFLCKAVHVIYTVNLYS
[1]
  radioactive counts recorded in twenty minutes: 231 counts
[2]
  radioactive counts recorded in twenty minutes: 643 counts

## IKNLKIEDSDTYICEVED
[3]
  COUNTS of radiolabeled gp120 retained: 699 counts

## THALQGQSLTLTLES
[4]
  COUNTS of radiolabeled gp120 retained: 7683 counts and 5059 counts

## LLVFGLTANSDTHLLQGQ
[3]
  COUNTS of radiolabeled gp120 retained: 568 counts

## SDTYICEVEDQK
[5]
  COUNTS of radiolabeled gp120 retained: 846 counts

## QKHRSLKIIFLVMAVFLL [STRL33 segment 225-242]
[6]
  radioactive counts recorded in twenty minutes: 810.5 counts
[7]
  radioactive counts recorded in twenty minutes: 814.5 counts

## LYAFLGAKFKTSAQHALT [CXCR4 segment 301-318]
[1]
  radioactive counts recorded in twenty minutes: 156 counts
[2]
  radioactive counts recorded in twenty minutes: 568 counts

## MYLVVFVCGLVGNSLVLV [STRL33 segment 37-54]
[6]
  radioactive counts recorded in twenty minutes: 168.5 counts
[7]
  radioactive counts recorded in twenty minutes: 235.5 counts

## FKIDIVVLAFQKASSIVYKKE
[8]
  COUNTS of radiolabeled gp120 retained: 593 counts

## FGLTANSDTHLL
[5]
  COUNTS of radiolabeled gp120 retained: 571 counts

## VFASLPGIIFTRSQKEGL [CCR5 segment 157-]
[9]
  Counts per 20′ Average-background: 54 counts per 20′

## IEDSDTYIC
[5]
  COUNTS of radiolabeled gp120 retained: 567 counts

## PLAFTVEKLTGS
[10]
  COUNTS of radiolabeled gp120 retained: 528 counts

## LGLVLPLLVMVICYSGIL
[9]
  Counts per 20′ Average-background: 180 counts per 20′

## LPYYIGISIDSFILLEII
[1]
  radioactive counts recorded in twenty minutes: 439 counts
[2]
  radioactive counts recorded in twenty minutes: 851 counts

## NLKIEDSDTYICEVE
[3]
  COUNTS of radiolabeled gp120 retained: 1160 counts

## LGMTHCCINPIIYAFVGE [CCR5 segment 285-]
[9]
  Counts per 20′ Average-background: 282 counts per 20′

## MDYQVSSPIYDINAYTSE [CCR5 (1-18) variant Y14A]
  Relative % of Control: 15 ± 0.3%
CCR5 alanine mutant peptide, radiolabeled HIV-1LAI gp120
  percentage of binding of mutant polypeptide compared to wild-type polypeptide, gp120: 14.6%

## FWAHYAAAQWDFGNTMCQ [CCR5 segment 85-]
[9]
  Counts per 20′ Average-background: 212 counts per 20′

## DIVVLAFQK
[10]
  COUNTS of radiolabeled gp120 retained: 686 counts

## GEQVEFSFPLAFTVE
[11]
  COUNTS of radiolabeled gp120 retained: 4656 counts
Panel G, alanine replacements and serial truncations (Z) of CD4 polypeptides, empty control 580
  COUNTS of radiolabeled gp120 retained: 18856 counts and 18867 counts and 20691 counts and 17662 counts and 19190 counts and 18219 counts

## EKLTGSGEL
[10]
  COUNTS of radiolabeled gp120 retained: 541 counts

## VEKLTGSGE
[10]
  COUNTS of radiolabeled gp120 retained: 585 counts

## KLICGYHDEAISTVVLAT [STRL33 segment 177-194]
[6]
  radioactive counts recorded in twenty minutes: 1363.5 counts
[7]
  radioactive counts recorded in twenty minutes: 1604.5 counts

## ANSDTHLLQGQS
[5]
  COUNTS of radiolabeled gp120 retained: 559 counts

## KNLKIEDSDTYICEVEDQ
[3]
  COUNTS of radiolabeled gp120 retained: 708 counts

## QNQKKVEFK
[10]
  COUNTS of radiolabeled gp120 retained: 537 counts

## KVEFKIDIV
[10]
  COUNTS of radiolabeled gp120 retained: 555 counts

## VLQNQKKVEFKIDIVVLA
[11]
  COUNTS of radiolabeled gp120 retained: 724 counts

## AFQKASSIVYKKEGE
[11]
  COUNTS of radiolabeled gp120 retained: 544 counts

## VLAFQKASSIVYKKE
[11]
  COUNTS of radiolabeled gp120 retained: 634 counts

## YKKEGEQVEFSFPLA
[11]
  COUNTS of radiolabeled gp120 retained: 687 counts

## LLTQMPFNLMKFIRSTHW
[6]
  radioactive counts recorded in twenty minutes: 2513.5 counts
[7]
  radioactive counts recorded in twenty minutes: 3154.5 counts

## NQKKVEFKIDIVVLAFQK
[11]
  COUNTS of radiolabeled gp120 retained: 889 counts

## IPDFIFANVSEADDRYIC
[1]
  radioactive counts recorded in twenty minutes: 438 counts
[2]
  radioactive counts recorded in twenty minutes: 850 counts

## LAFTVEKLTGSGELWWQAERA
[8]
  COUNTS of radiolabeled gp120 retained: 3577 counts

## HVIYTVNLYSSVLILAFI [CXCR4 segment 113-130]
[1]
  radioactive counts recorded in twenty minutes: 118 counts
[2]
  radioactive counts recorded in twenty minutes: 530 counts

## LIIKNLKIE
[5]
  COUNTS of radiolabeled gp120 retained: 515 counts

## KASSIVYKK
[10]
  COUNTS of radiolabeled gp120 retained: 498 counts

## MDYQVSSPIYDINYYASE
  Relative % of Control: 78 ± 34%

## EEVQLLVFGLTTNSD
[4]
  COUNTS of radiolabeled gp120 retained: 20021 counts and 20100 counts

## MAVFLLTQMPFNLMKFIR [STRL33 segment 237-254]
[6]
  radioactive counts recorded in twenty minutes: 2263.5 counts
[7]
  radioactive counts recorded in twenty minutes: 2842.5 counts

## VVLAFQKASSIVYKKEGEQVE
[8]
  COUNTS of radiolabeled gp120 retained: 772 counts

## VFGLTANSD
[5]
  COUNTS of radiolabeled gp120 retained: 549 counts

## VQLLVFGLTANSDTHLLQ
[3]
  COUNTS of radiolabeled gp120 retained: 673 counts

## THLLQGQSLTLTLEA
[4]
  COUNTS of radiolabeled gp120 retained: 5849 counts and 7984 counts
